Values of other authors as cited in patent US20150216993A1 (priority 2012, published 2015).

Test system: organophosphate poisoning
Settings: in vivo

O/N=C/c1cc[n+](COC[n+]2ccc(/C=N/O)cc2)cc1 [obidoxime, obidoxime chloride]
window of time in which the therapeutic is effective: about 10 minutes
